# Test system: sporadic PD patient fibroblasts
# Experiment: Cellular ATP levels in sporadic PD patient fibroblasts, Preliminary ATP assay
# Assay type: cell-based, human
# Settings: Homo sapiens, Fibroblast, 24 h, % of vehicle treated sPD fibroblasts, 3 sporadic PD patients; for activity at 0.1 µM: 100 nM, read-out: Average ATP Response 100 nM; for activity at 1 µM: read-out: Average ATP Response 1 μM
# Procedure: In some cases, a preliminary ATP protocol was used in which EC50 was not determined. The preliminary ATP protocol is generally as described in Mortiboys et al 2008. Briefly, fibroblasts were cultured and plated into white, clear-bottom 384 well plates at a concentration of 4000 cells per well in 50 μl of media volume. The plates are left overnight in an incubator to allow the fibroblasts to adhere to the plate surface. The following morning the Glucose based medium is replaced with 25 μl of Galactose based medium. The cells were then dosed with 100 nM and 1 μM concentrations of the compounds using a ECHO 550 liquid handling system. After dosing the wells are topped up with a further 25 μl of Galactose based medium and then left in an incubator for 24 hours. Following this incubation, the medium is removed from the plate and the wells are washed twice with sterile PBS. The wells are filled with 20 μl of Sterile PBS followed by 10 μl of Lysis solution from the ATPlite™ Luminescence ATP detection assay system (Perkin Elmer), including 14 cell free wells to use as blank controls. The plate is then placed on a rotary shaker for 10 mins at 700 rpm. Following the shaking 10 μl of ATP substrate solution (Perkin Elmer) is added to each well and a further 5 min of shaking. The plate is then incubated in the dark for 10 minutes prior to reading. Using a FLUOstar® Omega plate reader, luminescence intensity is recorded. Following the ATP assay the plates are immediately assayed for DNA content in a CyQUANT® assay.
# Immediately following The ATP assay DNA content is assessed with the CyQUANT® NF Cell Proliferation Assay Kit (ThermoFisher). CyQUANT® buffer is prepared immediately before the assay and is comprised of 2 μl CyQUANT® dye per ml×1 HBSS solution. 10 μl of CyQUANT® buffer is added to each well. Cell plates were then incubated for 1 hour before being read on a FLUOStar® Plate reader with excitation at 497 nm and emission at 520 nm.
# The ATP Quantification for each well is determined as set out above.
SMILES,activity at 0.1 µM,activity at 1 µM
"C[C@H](CCCC(=O)O)[C@H]1CC[C@H]2[C@@H]3[C@@H](O)C[C@@H]4CN(C(=O)OCc5ccccc5)CC[C@]4(C)[C@H]3CC[C@]12C [Compound 50b, N-(benzyloxycarbonyl)-3-aza-7β-hydroxy-24-homo-5β-cholan-25-oic acid]",101%,99.8%
"C[C@H](CCC(=O)NCCS(=O)(=O)O)[C@H]1CC[C@H]2[C@@H]3[C@@H](O)C[C@@H]4CNCC[C@]4(C)[C@H]3CC[C@]12C [Compound 51a, N-(3-Aza-7β-hydroxy-5β-cholan-24-amide)-ethylsulfonic acid]",101%,107%
"C[C@H](CCC(=O)NCC(=O)O)[C@H]1CC[C@H]2[C@@H]3[C@@H](O)C[C@@H]4CNCC[C@]4(C)[C@H]3CC[C@]12C [Compound 52a, N-(3-Aza-7β-hydroxy-5β-cholan-24-amide)-acetic acid]",106%,110%
"C[C@H](CCC(=O)N[C@@H](COC(C)(C)C)C(=O)O)[C@H]1CC[C@H]2[C@@H]3[C@@H](O)C[C@@H]4CN(C)CC[C@]4(C)[C@H]3CC[C@]12C [Compound 53a, N-(3-Methyl-aza-7β-hydroxy-5β-cholan-24-oyl)-(2S)-2-amino-3-[(2-methylpropan-2-yl)oxy]propanoic acid]",109%,102%
"C[C@H](CCC(=O)N[C@H](CC(=O)O)c1ccccc1)[C@H]1CC[C@H]2[C@@H]3[C@@H](O)C[C@@H]4CN(C)CC[C@]4(C)[C@H]3CC[C@]12C [Compound 54a, N-(3-Methyl-aza-7β-hydroxy-5β-cholan-24-oyl)-(R)-3-amino-3-phenylpropanoic acid]",109%,107%
"C[C@H](CCC(=O)Nc1ccc(F)cc1)[C@H]1CC[C@H]2[C@@H]3[C@@H](O)C[C@@H]4CN(C)CC[C@]4(C)[C@H]3CC[C@]12C [Compound 55a, N-(3-Methyl-aza-7β-hydroxy-5β-cholan-24-oyl)-1-amino-4-fluorobenzene]",110%,109%
"C[C@H](CCC(=O)N1CCOCC1)[C@H]1CC[C@H]2[C@@H]3[C@@H](O)C[C@@H]4CNCC[C@]4(C)[C@H]3CC[C@]12C [Compound 56a, N-(3-Aza-7β-hydroxy-5β-cholan-24-oyl)-morpholine]",109%,100%
"C[C@H](CCC(=O)N[C@@H](CO)C(=O)O)[C@H]1CC[C@H]2[C@@H]3[C@@H](O)C[C@@H]4CNCC[C@]4(C)[C@H]3CC[C@]12C [Compound 57a, N-(3-Aza-7β-hydroxy-5β-cholan-24-oyl)-(S)-2-amino-3-hydroxypropanoic acid]",109%,107%
"C[C@H](CCC(=O)NCC(F)C(=O)O)[C@H]1CC[C@H]2[C@@H]3[C@@H](O)C[C@@H]4CNCC[C@]4(C)[C@H]3CC[C@]12C (stereo partly drawn) [Compound 58a, N-(3-Aza-7β-hydroxy-5β-cholan-24-oyl)-3-amino-2-fluoropropanoic acid]",102%,103%
"C[C@H](CCC(=O)N(C1CCCCC1)C1CCCCC1)[C@H]1CC[C@H]2[C@@H]3[C@@H](O)C[C@@H]4CN(C)CC[C@]4(C)[C@H]3CC[C@]12C [Compound 59a, N-(Cyclohexyl)-N-(3-methyl-aza-7β-hydroxy-5β-cholan-24-oyl)-cyclohexanamine]",106%,99.7%
"C[C@H](CCC(=O)Nc1ccc(C(=O)O)cc1)[C@H]1CC[C@H]2[C@@H]3[C@@H](O)C[C@@H]4CNCC[C@]4(C)[C@H]3CC[C@]12C [Compound 60a, N-(3-Aza-7β-hydroxy-5β-cholan-24-oyl)-4-aminobenzoic acid]",102%,102%
"CSCC[C@H](NC(=O)CC[C@@H](C)[C@H]1CC[C@H]2[C@@H]3[C@@H](O)C[C@@H]4CNCC[C@]4(C)[C@H]3CC[C@]12C)C(=O)O [Compound 61a, N-(3-Aza-7β-hydroxy-5β-cholan-24-oyl)-(S)-2-amino-4-(methylthio)butanoic acid]",105%,108%
"C[C@H](CCC(=O)NCCC(=O)O)[C@H]1CC[C@H]2[C@@H]3[C@@H](O)C[C@@H]4CNCC[C@]4(C)[C@H]3CC[C@]12C [Compound 62a, N-(3-Aza-7β-hydroxy-5β-cholan-24-amide)-propanoic acid]",108%,108%
"CC(C)OC(=O)c1ccc(NC(=O)CC[C@@H](C)[C@H]2CC[C@H]3[C@@H]4[C@@H](O)C[C@@H]5CNCC[C@]5(C)[C@H]4CC[C@]23C)cc1 [Compound 63a, N-(3-Aza-7β-hydroxy-5β-cholan-24-oyl)-(isopropyl-4-aminobenzoate)]",106%,104%
"CC(C)[C@H](NC(=O)CC[C@@H](C)[C@H]1CC[C@H]2[C@@H]3[C@@H](O)C[C@@H]4CNCC[C@]4(C)[C@H]3CC[C@]12C)C(=O)O [Compound 65a, N-(3-Aza-7β-hydroxy-5β-cholan-24-oyl)-(S)-2-amino-3-methylbutanoic acid]",111%,108%
"CC[C@H](C)[C@H](NC(=O)CC[C@@H](C)[C@H]1CC[C@H]2[C@@H]3[C@@H](O)C[C@@H]4CNCC[C@]4(C)[C@H]3CC[C@]12C)C(=O)O [Compound 66a, N-(3-Aza-7β-hydroxy-5β-cholan-24-oyl)-(2S,3S)-2-amino-3-methylpentanoic acid]",109%,111%
"C[C@H](CCC(=O)N(C)CC(=O)O)[C@H]1CC[C@H]2[C@@H]3[C@@H](O)C[C@@H]4CNCC[C@]4(C)[C@H]3CC[C@]12C [Compound 67a, N-Methyl-N-(3-aza-7β-hydroxy-5β-cholan-24-oyl)-glycine]",108%,107%
"C[C@H](NC(=O)CC[C@@H](C)[C@H]1CC[C@H]2[C@@H]3[C@@H](O)C[C@@H]4CNCC[C@]4(C)[C@H]3CC[C@]12C)C(=O)O [Compound 68a, N-(3-Aza-7β-hydroxy-5β-cholan-24-oyl)-(S)-2-aminopropanoic acid]",109%,99%
"C[C@H](CCCC(=O)N[C@@H](CC(=O)O)C(=O)O)[C@H]1CC[C@H]2[C@@H]3[C@@H](O)C[C@@H]4CNCC[C@]4(C)[C@H]3CC[C@]12C [Compound 70b, N-(3-Aza-7β-hydroxy-25-homo-5β-cholan-25-oyl)-(S)-2-aminobutanedioic acid]",106%,107%
"C[C@H](CCCC(=O)N[C@@H](COC(C)(C)C)C(=O)O)[C@H]1CC[C@H]2[C@@H]3[C@@H](O)C[C@@H]4CNCC[C@]4(C)[C@H]3CC[C@]12C [Compound 71b, N-(3-Aza-7β-hydroxy-25-homo-5β-cholan-25-oyl)-(2S)-2-amino-3-[(2-methylpropan-2-yl)oxy]propanoic acid]",106%,104%
"C[C@H](CCCC(=O)NCCS(=O)(=O)O)[C@H]1CC[C@H]2[C@@H]3[C@@H](O)C[C@@H]4CNCC[C@]4(C)[C@H]3CC[C@]12C [Compound 72b, N-(3-Aza-7β-hydroxy-25-homo-5β-cholan-25-amide)-ethylsulfonic acid]",102%,112%
"C[C@H](CCCC(=O)N[C@@H](Cc1ccccc1)C(=O)O)[C@H]1CC[C@H]2[C@@H]3[C@@H](O)C[C@@H]4CNCC[C@]4(C)[C@H]3CC[C@]12C [Compound 73b, N-(3-Aza-7β-hydroxy-25-homo-5β-cholan-25-oyl)-(S)-2-amino-3-phenylpropanoic acid]",99.6%,100%
"CC(CC(=O)O)NC(=O)CCC[C@@H](C)[C@H]1CC[C@H]2[C@@H]3[C@@H](O)C[C@@H]4CNCC[C@]4(C)[C@H]3CC[C@]12C (stereo partly drawn) [Compound 74b, N-(3-Aza-7β-hydroxy-25-homo-5β-cholan-25-oyl)-3-aminobutanoic acid]",103%,98.5%

# — patent publication US20250320246A1, “3-AZASTEROID COMPOUNDS FOR THE TREATMENT OF DISEASES RELATED TO MITROCHONDRIAL FUNCTION” (NZP UK LIMITED, priority 2022, published 2025)
